According to patent publication US20240209028A1, “CNP COMPOUNDS” (priority 2022, published 2024):
Starred links: 1 amine or outer side, 2 acyl side, 3 side chain; linkers in the order of their positions; H or OH if unused. Positions of bridges follow the written chain, without caps; N, C: chain ends. Residues, ends and D or L forms follow the SMILES beside them. *: point of attachment. C18 diacid = O=C(O)CCCCCCCCCCCCCCCCC(=O)*; γGlu = O=C(O)[C@H](CCC(=O)[*:2])N[*:1]; AEEA = NCCOCCOCC(=O)O

Test: Thioflavin T (ThT) assay: lagtime and peptide recovery
Format: physicochemical
Details: assay terminated after 45 hours; for LagTime (h) at pH 6.5: ThT assay, pH 6.5, 37° C.
Summary of the method: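 ThT (final about 1 μM) was added to peptide supernatants at pH 4.0 and 6.5 and incubated at 37 °C with orbital shaking for 45 h. Fluorescence (ex 444/em 485 nm) was read every 20 min, and lag-time was taken as the time to onset of signal rise. Recovery is the RP-UPLC (215 nm) total peak area after vs. before incubation.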

Compound	LagTime (h) at pH 6.5	LagTime (h) at pH 4.0 (ThT, 37° C., shaking)
CC[C@H](C)[C@@H]1NC(=O)[C@H](CCCNC(=N)N)NC(=O)[C@H](CC(=O)O)NC(=O)[C@H](CC(C)C)NC(=O)[C@@H]2CCCN2C(=O)[C@H](CC(C)C)NC(=O)CNC(=O)[C@H](Cc2ccccc2)NC(=O)[C@@H](NC(=O)CNC(=O)[C@H](CCC(N)=O)NC(=O)[C@H](CO)NC(=O)[C@H](CO)NC(=O)CNC(=O)[C@H](CCCCN)NC(=O)[C@H](CCCCN)NC(=O)[C@H](CCC(N)=O)NC(=O)[C@H](C)NC(=O)CNC(=O)[C@@H]2CCCN2C(=O)[C@H](C)NC(=O)[C@H](CCC(N)=O)NC(=O)CNC(=O)COCCOCCNC(=O)COCCOCCNC(=O)CC[C@H](NC(=O)CCCCCCCCCCCCCCCCC(=O)O)C(=O)O)CSSC[C@@H](C(=O)O)NC(=O)CNC(=O)[C@H](CC(C)C)NC(=O)CNC(=O)[C@H](CO)NC(=O)[C@H](CC(C)C)NC(=O)[C@H](CO)NC(=O)CNC1=O [compound 9384] ({C18 diacid-γGlu-AEEA-AEEA}-GQAPGAQKKGSSQGCFGLPLDRIGSLSGLGC-OH; disulfide 15-31; C-terminus assumed)	45 h	–
CC[C@H](C)[C@@H]1NC(=O)[C@H](CCCNC(=N)N)NC(=O)[C@H](CC(=O)O)NC(=O)[C@H](CC(C)C)NC(=O)[C@@H]2CCCN2C(=O)[C@H](CC(C)C)NC(=O)CNC(=O)[C@H](Cc2ccccc2)NC(=O)[C@@H](NC(=O)CNC(=O)[C@H](CCC(N)=O)NC(=O)[C@H](CO)NC(=O)[C@H](CC(C)C)NC(=O)CNC(=O)[C@H](CCCCN)NC(=O)[C@H](CCCCN)NC(=O)[C@H](CCC(N)=O)NC(=O)[C@H](C)NC(=O)CNC(=O)[C@H](CCCCN)NC(=O)[C@H](Cc2ccc(O)cc2)NC(=O)[C@H](CCCCN)NC(=O)[C@H](CCCNC(=N)N)NC(=O)[C@H](C)NC(=O)COCCOCCNC(=O)COCCOCCNC(=O)COCCOCCNC(=O)COCCOCCNC(=O)CC[C@H](NC(=O)CC[C@H](NC(=O)CC[C@H](NC(=O)CC[C@H](NC(=O)CC[C@H](NC(=O)CCCCCCCCCCCCCCCCC(=O)O)C(=O)O)C(=O)O)C(=O)O)C(=O)O)C(=O)O)CSSC[C@@H](C(=O)O)NC(=O)CNC(=O)[C@H](CC(C)C)NC(=O)CNC(=O)[C@H](CO)NC(=O)[C@H](CC(C)C)NC(=O)[C@H](CO)NC(=O)CNC1=O [compound 9407] ({C18 diacid-γGlu-γGlu-γGlu-γGlu-γGlu-AEEA-AEEA-AEEA-AEEA}-ARKYKGAQKKGLSQGCFGLPLDRIGSLSGLGC-OH; disulfide 16-32)	45 h	–
CC[C@H](C)[C@@H]1NC(=O)[C@H](CCCNC(=N)N)NC(=O)[C@H](CC(=O)O)NC(=O)[C@H](CC(C)C)NC(=O)[C@@H]2CCCN2C(=O)[C@H](CC(C)C)NC(=O)CNC(=O)[C@H](Cc2ccccc2)NC(=O)[C@@H](NC(=O)CNC(=O)[C@H](CCC(N)=O)NC(=O)[C@H](CO)NC(=O)CNC(=O)CNC(=O)[C@H](CCCCN)NC(=O)[C@H](CCCCN)NC(=O)[C@H](CCC(N)=O)NC(=O)[C@H](C)NC(=O)CNC(=O)[C@H](CCCCN)NC(=O)[C@H](Cc2ccc(O)cc2)NC(=O)COCCOCCNC(=O)COCCOCCNC(=O)COCCOCCNC(=O)COCCOCCNC(=O)CC[C@H](NC(=O)CC[C@H](NC(=O)CCCCCCCCCCCCCCCCC(=O)O)C(=O)O)C(=O)O)CSSC[C@@H](C(=O)O)NC(=O)CNC(=O)[C@H](CC(C)C)NC(=O)CNC(=O)[C@H](CO)NC(=O)[C@H](CC(C)C)NC(=O)[C@H](CO)NC(=O)CNC1=O [compound 9435] ({C18 diacid-γGlu-γGlu-AEEA-AEEA-AEEA-AEEA}-YKGAQKKGGSQGCFGLPLDRIGSLSGLGC-OH; disulfide 13-29; C-terminus assumed)	45 h	45 h
